The values that follow come from patent US20200369996A1, “Bioreactor Screening Platform for Modelling Human Systems Biology and for Screening for Inotropic Effects of Agents on the Heart” (NOVOHEART LIMITED, priority 2017, published 2020).

“Also recorded” adds a separate entry of the source. Where two headings read alike, the source gives them in different places.

In assay [1] the test system is non-failing human myocardium. As to conditions: ref [18]; cited from earlier work.
For the next assay, the system named is EHT from hiPSC-CMs. As to conditions: drug screening with EHT from hiPSC-CMs; ref [3]; cited from earlier work.
Assay [2] relates to human ventricular cardiac tissue strips (hvCTS). The assay is described as follows: hvCTS drug screening: twitch force under electrical pacing. In kind it is cell-based. As to conditions: Homo sapiens. The procedure:
One of ordinary skill in the art will recognize that the gels can be formed in any of a variety of sizes and shapes, and the molds used to form such gels can also be formed in any of a variety of sizes and shapes, depending on the intended use of the molded gel. The molded mixtures were then bathed with culture medium (DMEM supplemented with 10% newborn calf serum), and maintained in culture with daily half-medium exchanges. Inserts in the casting molds were removed at 48 hours, yielding a self-assembled hvCTS held between 0.5-mm-diameter circular PDMS posts at each end. It is apparent that the posts can be formed from any flexible material amenable to at least one form of sterilization are suitable. As noted above, the whole mold can be scaled up or down depending on the application, and the posts can also be scaled up or down. In general, the height of the posts would be similar to the height of a well (e.g., about 6 mm in an exemplary embodiment). Any of a wide variety of cross-sectional shapes is contemplated as being suitable for use in the system, apparatus and methods according to the disclosure. At 7 days after hvCTS creation, the hvCTS were used for drug screening.
Initially, pharmacological compounds were prepared for screening. Compounds for unblinded “open label” screening were purchased from Sigma and stock solutions at the highest possible concentrations were prepared according to the product information. Working concentrations over a 5-logarithmic range were prepared for each drug.
Working concentrations over a 5-logarithmic range were prepared for each drug according to the dose-range recommendation provided by the supplier.
New born calf serum containing medium was replaced with DMEM high glucose with HEPES without phenol red for optical measurement of generated force in hvCTS. […] The integrated flexible PDMS posts were used as force sensors, with the post deflection captured in real-time with a high-speed camera (100 frames/s) and LabView software (National Instruments, Austin, Tex., USA), applying a beam-bending equation from elasticity theory to calculate twitch force, as described previously^[2] and incorporated herein by reference. These measurements were obtained with the hvCTS maintained in the original molds where they were created with the hvCTS bathed in culture medium at 37° C. For each drug, force generated in response to 9 doses were measured with the drugs added to the hvCTS at half log increments in a cumulative manner. For each dose, the force generated at 0 Hz, 0.5 Hz, 1 Hz, 1.5 Hz and 2 Hz electrical pacing with field electrodes were measured.
Data analysis. Data were calculated and analyzed by a customized MatLab program. Force frequency curves for each drug were generated by plotting the generated force at 0.5 Hz, 1 Hz, 1.5 Hz and 2 Hz at different concentrations. All forces were normalized to the generated force at 0.5 Hz at the drug-free baseline condition (100%).
[…] The force generated under drug-free baseline condition was defined as 100%. The force generated at each drug concentration was then normalized to the generated force under the cognate drug-free baseline condition. The EC50 of each tested drug was estimated by fitting to a four-parameter dose-response equation given as: Y=Bottom+(Top-Bottom)/(1+10^((Log EC^50^−X)*HillSlope)), using commercial software (GraphPad Software Inc.). X is the logarithm of drug concentrations; […]; Top and Bottom are the Y values of the top and bottom plateaus of the curve itself; Baseline is the Y value that defines 0%—maximal inhibition by a standard drug. Hill Slope quantifies the steepness of the dose-response curve (the higher the Hill Slope, the steeper the curve).

The test system of assay [3] is human ventricular cardiac organoid chamber (hvCOC). The assay is described as follows: hvCOC second tier screening: contractile (pump) function. In kind it is cell-based. From the text: The initial steps of hvCOC fabrication are identical to that described above for hvCTS generation, from the dissociation of cell clusters to the preparation of the cells/collagen/Matrigel mix with 1 million cells/ml of human dermal fibroblasts.
To create the chamber, we followed a procedure similar to a published procedure^29, incorporated herein by reference. Briefly, the top of a 3×3×6 cm polystyrene bioreactor was modified to permit 9-gauge hypodermic tubing (Small Parts) to pass through the center and 4 mm diameter graphite electrodes (GraphiteStore) to flank the chamber on the edges of the bioreactor. A 6-Fr silicone balloon Foley catheter (Cook Medical), with the tip cut off and sealed with silicone caulking, was threaded through the 9-Gauge tubing into the center of the bioreactor. A small ring cut from hydrophilic porous polyethylene (Fisher Scientific) was placed just above the balloon on the hypodermic tubing.
The balloon was filled with distilled water to the desired chamber size and positioned concentrically within a 2% agarose mold created in phosphate-buffered saline (PBS) and made by inserting a 13 mm diameter test tube (VWR) into the center of the agarose. The agarose mold forms the outer mold boundary while the catheter balloon forms the inner boundary. […]

For assay [4], the system named is sheep cardiac Purkinje fibers. The note with it: ref [19]; cited from earlier work.
The subject of the next assay is hECT. The note with it: hECT in muscle bath; ref [28]; cited from earlier work.
Assay [5] has as its system human right atrial trabeculae. As to conditions: ref [21]; cited from earlier work.

Regarding `CC(C)NCC(O)c1ccc(O)c(O)c1` (stereo not shown) [Isoproterenol], the relevant concentration in assay [1] was 0.8 μM [18], non-failing human myocardium; in the assay with EHT from hiPSC-CMs it was 5.4 nM [3], drug screening with EHT from hiPSC-CMs. For the same molecule, the concentration for a half-maximal effect (EC50) (usually the concentration giving half of the maximal effect) in assay [2] (0.5 Hz pacing, Example 2 / FIG. 2C, read-out: EC50, developed contractile force) is 39 nM; in assay [2] (1 Hz pacing, Example 2, read-out: EC50, developed contractile force) it was 59 nM; in assay [2] (1 Hz pacing, unblinded screening, Example 3, read-out: EC50, developed contractile force), 150 nM; in assay [2] (1.5 Hz pacing, Example 2, read-out: EC50, developed contractile force) it was 54 nM; in assay [2] (2 Hz pacing, Example 2 / FIG. 2C, read-out: EC50, developed contractile force) it was 31 nM; in assay [2] (Unblinded, 1 Hz pacing, read-out: -log EC50 in hvCTS (converted)), 148 nM. The EC50 was 150 nM in assay [2] (Unblinded, 1 Hz pacing, read-out: EC50 in hvCTS (in brackets)) and 31 to 59 nM in assay [2] (across pacing frequencies 0.5-2 Hz, FIG. 2C, read-out: EC50 with increasing pacing frequency). Further, the Emax at 10 µM in assay [2] (10 μM isoproterenol, hvCTS, read-out: maximal effect) was found to be 113%; in assay [3] (Homo sapiens, 10 μM isoproterenol, hvCOC, read-out: maximal effect, pressure), 132%. In addition, the “effect on hvCOC function” value in assay [3] (stroke volume/stroke work, cardiac output, developed pressure) was “concentration-dependent increase in stroke volume, cardiac output, and developed pressure; also recorded: increase in stroke work, cardiac output and pressure volume loop”.
For the molecule `CCN(CC)CC(=O)Nc1c(C)cccc1C` [Lidocaine], the “concentration with negative inotropic effect” value in assay [4] is 20 μM, [19] negative inotropic effect in sheep. In addition, in assay [2] (1 Hz pacing, blinded screening, Example 4, read-out: IC50, developed contractile force), the IC50 (commonly the point on the concentration scale where inhibition reaches its midpoint) worked out at 440 nM. Moreover, the EC50 in assay [2] (Blinded, 1 Hz pacing, read-out: -log EC50 in hvCTS (converted)) is 437000 nM; in assay [2] (Blinded, 1 Hz pacing, read-out: EC50 in hvCTS (in brackets)), 439000 nM.
Turning to `COc1ccc(CCN(C)CCCC(C#N)(c2ccc(OC)c(OC)c2)C(C)C)cc1OC` (stereo not shown) [Verapamil], in the assay with hECT, the relevant concentration is 0.61 μM [28], hECT in muscle bath. In addition, the IC50 in assay [5] is 123 nM.
